Assay results: patent US11420922B2, “Hydroxylated tropolone inhibitors of nucleotidyl transferases in herpesvirus and Hepatitis B and uses therefor” (Saint Louis University, priority 2015, dated 2022)

Tests used:
[1] = Mouse liver microsome assay; assay type: in vitro ADME; conditions: 1 μM in mouse liver microsomes; for ER: extraction ratio
Method: Microsomal incubations are run at a final P450 concentration of 0.25 μM. The microsomal mixture is composed of 0.1M potassium phosphate containing 3.3 mM MgCl and 1 μM compound (final concentration). The mixture is prewarmed for 5 min at 37° C. To initiate the reaction a 12 mM stock of NAPDH (1.2 mM, final concentration) is added to the warmed microsomal mixture and aliquots are removed at 0, 5, 10, 20 and 30 min. Samples are quenched with ice cold acetonitrile containing internal standard and either 1.8 mM EDTA or EGTA (final concentration). Samples are vortexed and spun down at 3200 rpm for 5 min. The supernant is transferred to 96-deep well plates and run on LC/MS/MS.

[2] = system: HBV replication; experiment: Chou-Talalay combination of RNAseH inhibitors with Lamivudine against HBV replication; assay type: cell-based, Hepatitis B virus; conditions: CI <1.0 synergy, ~1.0 additive, >1.0 antagonism
Text: Additive interactions are shown with the red line, synergistic interactions below the line, and antagonistic interactions are above the line.
Current nucleos(t)ide analog therapy for HBV has converted hepatitis type B from an implacably progressing illness to a controllable disease. However, patients are only very rarely cured, in part due to the incomplete inhibition of HBV replication. The inventors hypothesized that the novel RNaseH inhibitors would work synergistically with the existing nucleos(t)ide analogs because the two classes of drugs target physically distinct active sites on the viral polymerase protein. […] RNAseH inhibitors from two different chemical classes were employed, compound #1 [2-hydroxyisoquinoline-1,3(2H,4H)-dione], an HID, and #46 (β-thujaplicinol), an α-hydroxytropolone, were tested. Chou-Talaly analysis yields a combination index (CI). CI values<1.0 indicate synergy, CIs of approximately 1.0 indicate additive interactions, and CI values>1.0 indicate antagonism. CI values are calculated at various efficacy levels (EC50, EC75, EC90, and EC95), and a weighted CI value favoring higher efficacy levels is also generated. FIGS. 6A & 6B show the results of four experiments employing compound #1 and three with compound #46. […] Therefore, RNAseH inhibitors act strongly synergistically with an approved nucleos(t)ide analog drug against HBV.

[3] = system: HSV-1; conditions: 5 μM or less; cited from earlier work
[4] = system: patient-derived RNAseH enzymes (genotypes B, C and D); experiment: Biochemical RNAseH assay with patient-derived variant enzymes; parameters: species or system Hepatitis B virus
Text: Four variant patient-derived RNAseH enzymes were expressed as recombinant enzymes, purified, and tested in an RNAseH assay with compounds #1 (FIG. 7A) and #46 (FIG. 7B) at their respective IC50s.
HBV has at least 8 genotypes differing in sequence by 8%. Genetic diversity in the RNAseH domain is about 6%, which is easily high enough to modulate viral sensitivity to RNAseH inhibitors. Therefore, the inventors tested the RNAseH inhibitors #1 [2-hydroxyisoquinoline-1,3(2H,4H)-dione], an HID, and #46 (β-thujaplicinol), an α-hydroxytropolone, for the ability to inhibit variant RNAseHs. Twelve purified, patient-derived RNAseH enzymes (4 from each genotypes B, C and D) were tested with the compounds at their respective IC50 values in a biochemical RNAseH assay. […] Therefore, HBV's high genetic variation is unlikely to present a substantial barrier to drug development.

[5] = system: HSV-2; conditions: 5 μM or less; cited from earlier work
[6] = system: HSV-2; experiment: Anti-HSV-2 replication assay in Vero cells, titers by plaque assay; assay type: cell-based, herpes simplex virus 2; conditions: Human alphaherpesvirus 2, Vero, 24 h; for log reduction at 5 µM: read-out: HSV-2 Log suppression 5 μM; for log reduction at 50 µM: read-out: HSV-2 Log suppression 50 μM
[7] = system: HSV-1; experiment: Anti-HSV-1 replication assay in Vero cells, titers by plaque assay; assay type: cell-based, herpes simplex virus 1; conditions: Human alphaherpesvirus 1, Vero, 24 h; for log reduction at 5 µM: read-out: HSV-1 Log suppression 5 μM; for log reduction at 50 µM: read-out: HSV-1 Log suppression 50 μM
Summary of the method: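 Vero monolayers infected with clinical HSV-1 or HSV-2 isolates at MOI 0.1 with compound present (50 and 5 μM final), 1 h at 37° C, then compound in DMEM for another 23 h. Yield titered by plaque assay on Vero cells; EC50 by nonlinear fit of serial dilutions starting at 50 μM, DMSO controls.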

[8] = system: Vero cells; experiment: Qualitative (visual) Vero cell toxicity; assay type: cell-based; conditions: visual inspection in primary screen, key to t, T not given
Method: Qualitative assessments of cytotoxicity were done visually by inspecting the cells in the primary screening assays. For the quantitative assays, cells were plated in 96-well plates at 1.0×10^4 per well. The next day the compounds were added at 0.78 to 100 μM in a final concentration of 1% (v/v) DMSO, and the cells were incubated for 24 hours under conditions identical to those employed for the viral replication inhibition assays. Mitochondrial toxicity was measured by incubating the cells with 0.25 mg/mL thiazolyl blue tetrazolium bromide (MTT, Sigma Aldrich Chemical Co.), the cultures were incubated for 60 min, metabolites were solubilized in acidic isopropanol, and absorbance was read at 570 nm. CC50 values were calculated by non-linear curve fitting using GraphPad Prism.
Compound toxicity was measured both subjectively and quantitatively. Subjective assessments were done by visually inspecting the infected cells at the end of the 24 h infection window through a phase-contrast microscope.

[9] = system: HBV; experiment: HBV replication assay in HepDES19 cells; assay type: cell-based; conditions: Hepatitis B virus; HepDES19 cells; read-out: EC50 (HBV assay)
Summary of the method: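 HepDES19 cells induced by tetracycline withdrawal, then compound applied 48 h later in duplicate (1% DMSO final) and refreshed daily for two more days. After micrococcal nuclease digestion, capsid-associated HBV DNA purified and plus- and minus-strand DNA quantified by TaqMan PCR.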

[10] = system: HSV; experiment: Anti-HSV SAR summary, HSV type not separated; assay type: cell-based, herpes simplex virus; conditions: grouped by activity at 50, 5 and 0.5 μM
Summary of the method: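 Confluent monolayers were infected with HSV-1 or HSV-2 at MOI 0.1 in the presence of compound at 50 and 5 µM for 1 h at 37 °C. Compound was then re-added in DMEM/2% newborn calf serum for 23 h more. Yield was titred by plaque assay on Vero cells, with DMSO controls. EC50 values came from serial dilutions starting at 50 µM, fitted by non-linear regression.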

SMILES	CL ′hep [1] [L/h/kg]	CL′int [1] [L/h/kg]	Non-P450 turn-over [1]	t ½ [1] [h]	ER [1]	weighted CI value (combination index) with Lamivudine [2]	suppression of HSV-1 replication in cell culture, in words [3]	inhibition of four genotype D RNAseH enzymes ([4]; compound at its IC50, FIGS. 7A & 7B)	inhibition of all 12 variant RNAseH enzymes, in words ([4]; compound at its IC50, genotypes B, C and D)	suppression of HSV-2 replication in cell culture, in words [5]	log reduction at 5 µM [6]	log reduction at 50 µM [6]	half-life at 1 μM ([1]; read-out: t ½) [h]	CLint scaled at 1 μM ([1]; mouse, liver microsomes) [L/h/kg]	predicted hepatic clearance at 1 μM ([1]; mouse, liver microsomes, read-out: CL ′hep) [L/h/kg]	log reduction at 5 µM [7]	log reduction at 50 µM [7]	Vero cell toxicity Qualitative [8]	EC50 [9] [µM]	anti-HSV SAR group, in words [10]
CC(C)c1ccc(O)c(=O)c(O)c1 [Compound 46, β-thujaplicinol, reference compound]	4.2	19.1	No	0.267	0.78	0.44±0.3	strongly suppress	about 50%	Equivalent results	strongly suppress	–	–	–	–	–	–	–	–	–	–
CC(=O)c1cc(O)c(=O)c(O)cc1C [Compound 110]	–	–	No	–	0.22	–	–	–	–	–	-0.65	4.24	> 2	1.56	1.2	-0.47	5.11	t?	0.34	weakest inhibitors
CCOC(=O)c1c(C)cc(O)c(=O)c(O)c1C [Compound 117]	–	–	–	–	–	–	–	–	–	–	-0.16	4.97	–	–	–	0.76	4.66	t?	–	weakest inhibitors
